Measurements as given in the supplement of paper PMC10307832.

Tests used:
Venetoclax = compound: CC1(C)CCC(CN2CCN(c3ccc(C(=O)NS(=O)(=O)c4ccc(NCC5CCOCC5)c([N+](=O)[O-])c4)c(Oc4cnc5[nH]ccc5c4)c3)CC2)=C(c2ccc(Cl)cc2)C1 [Venetoclax]; test: relative viability (nuclei count vs DMSO), 5 days (fraction); higher = more cells survive
Outline: (§1)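 Acceptance criteria were a control CV below 25% and at least one doubling per plate. Lung cancer cell lines in 1536-well plates got five library-drug doses (not always all listed) √10 apart by pinning and were left 5 days with no medium change. Viability divides treated-well nuclei by vehicle-well nuclei and is the median across plates. Nuclei were counted by MetaXpress from 4× Hoechst images.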

Selumetinib = compound: Cn1cnc2c(F)c(Nc3ccc(Br)cc3Cl)c(C(=O)NOCCO)cc21 [Selumetinib]; test: as above
Outline: as §1

| Cell Line | relative viability (Venetoclax; 0.01 µM) | relative viability (Venetoclax; 0.03162 µM) | relative viability (Venetoclax; 0.1 µM) | relative viability (Venetoclax; 0.3162 µM) | relative viability (Venetoclax; 1 µM) | relative viability (Selumetinib; 0.02 µM) | relative viability (Selumetinib; 0.06325 µM) | relative viability (Selumetinib; 0.2 µM) | relative viability (Selumetinib; 0.6325 µM) |
| --- | --- | --- | --- | --- | --- | --- | --- | --- | --- |
| NCI-H1793 | 0.933 | 0.993 | 0.787 | 0.887 | 0.784 | 0.709 | 0.682 | 0.561 | 0.457 |
| NCI-H1915 | 0.954 | 1.03 | 0.937 | 0.991 | 0.92 | 1.07 | 0.84 | 0.666 | 0.581 |
| NCI-H1944 | 1.14 | 0.937 | 0.951 | 1.05 | 0.891 | 0.946 | 0.791 | 0.673 | 0.643 |
| NCI-H1975 | 0.99 | 0.935 | 0.889 | 0.939 | 0.884 | 0.952 | 0.958 | 0.939 | 0.663 |
| NCI-H1993 | 0.892 | 0.999 | 0.904 | 0.91 | 0.838 | 0.794 | 0.727 | 0.728 | 0.762 |
| NCI-H2009 | 1.05 | 1.01 | 0.991 | 0.974 | 0.882 | 0.925 | 0.639 | 0.574 | 0.385 |
| NCI-H2023 | 0.932 | 1.05 | 1.05 | 0.953 | 0.859 | 0.987 | 0.841 | 0.862 | 0.758 |
| NCI-H2085 | 0.873 | 1.08 | 1.03 | 0.969 | 0.928 | 0.863 | 0.844 | 0.881 | 0.788 |
| NCI-H2087 | 0.921 | 1.03 | 0.821 | 1.01 | 1.02 | 0.849 | 0.672 | 0.48 | 0.318 |
| NCI-H2126 | 1 | 1.07 | 0.992 | 0.996 | 0.953 | 0.932 | 0.883 | 0.857 | 0.77 |
| NCI-H2170 | 0.863 | 0.944 | 0.904 | 0.91 | 0.877 | 0.982 | 0.97 | 0.896 | 0.937 |
| NCI-H2228 | 0.942 | 1.03 | 0.86 | 0.891 | 0.965 | 0.898 | 0.958 | 0.943 | 0.797 |
| NCI-H2342 | 1 | 0.984 | 1.03 | 1 | 0.967 | 0.888 | 0.896 | 0.943 | 0.946 |
| NCI-H2347 | 1.06 | 1.12 | 0.965 | 0.978 | 0.977 | 0.917 | 0.667 | 0.492 | 0.386 |
| NCI-H2405 | 1.03 | 1.14 | 0.978 | 0.996 | 0.914 | 1.02 | 0.923 | 0.861 | 0.686 |
| NCI-H3122 | 1.06 | 1 | 0.967 | 0.962 | 0.983 | 0.846 | 0.75 | 0.697 | 0.67 |
| PC-3 [JPC-3] | 0.995 | 1.07 | 1.06 | 1.04 | 0.917 | 1.01 | 1 | 0.869 | 0.787 |
| PC-14 | 1 | 1.08 | 1.03 | 0.989 | 0.818 | 0.931 | 0.932 | 0.935 | 0.844 |
| RERF-LC-KJ | 0.987 | 1.06 | 0.972 | 0.909 | 0.926 | 1 | 0.936 | 0.968 | 0.886 |
| SK-LU-1 | 0.953 | 1.16 | 0.991 | 1.01 | 1.02 | 1.07 | 0.904 | 0.8 | 0.484 |
| SK-MES-1 | 0.961 | 1.05 | 0.993 | 1 | 0.902 | 0.921 | 0.885 | 0.698 | 0.527 |
| SW 900 | 0.795 | 0.954 | 0.716 | 0.878 | 0.836 | 0.805 | 0.776 | 0.79 | 0.809 |
| SW 1573 | 0.974 | 0.985 | 0.911 | 0.969 | 0.877 | 0.882 | 0.814 | 0.754 | 0.833 |
